Assay results taken from patent publication US5264430A, “2-spirocyclopropyl cephalosporin sulfone derivatives” (SynPhar Laboratories, Inc., priority 1991, dated 1993).
Like-named read-outs stand apart in the source and are kept apart here.

Key:
cathepsin C = target: T1, cathepsin C (Bos taurus, UniProt Q3ZCJ8); experiment: Selectivity against various proteases: cathepsin C (CTC); type: biochemical, bovine
T1 construct: Purified cathepsin C from bovine spleen; from tissue; host or cells: bovine spleen

cathepsin D = target: T2, cathepsin D (Bos taurus, UniProt P80209); experiment: Selectivity against various proteases: cathepsin D (CTD); type: biochemical, bovine
T2 construct: Purified cathepsin D from bovine spleen; from tissue; host or cells: bovine spleen

thrombin = target: T3, thrombin (Homo sapiens, UniProt P00734); experiment: Selectivity against various proteases: thrombin (THR); type: biochemical; conditions: human plasma, pH 8.6, 22° C., 10 minute preincubation
T3 construct: Purified thrombin from human plasma; from tissue; host or cells: human plasma
Procedure: TRY = trypsin, THR = thrombin, PLM = plasmin, CTC = cathepsin C, APM =
Enzyme: Purified thrombin from human plasma
Substrate: Tosyl-glycyl-L-prolyl-L-arginine-p-NA acetate
50 mM Tricine-NaOH buffer (PH 8.6)
(§1) Except for Cathepsin D, the enzyme activities were determined by monitoring the increase in absorbance at 410 nm caused by the hydrolysis of chromogenic substrates. The activity of Cathepsin D was determined by monitoring the absorbance of 5% trichloroacetic acid-soluble material at 280 nm.
(§2) Inhibition of enzymes by the compounds described were determined after a 10 minute preincubation with enzymes in reaction mixtures minus substrate. Reactions were initiated by the addition of substrates. The concentration used for assays were porcine pancreatic elastase at 240 nM and human Cathepsin G at 50 nM. Cathepsin D was used at the concentration that produced approximately 0.15 O.D. increase per 20 min at 280 nm under the standard conditions. All other proteases were assayed at the concentrations that produced approximately 0.1 O.D. change per minute at 410 nm under the standard conditions.

aminopeptidase M = target: T4, aminopeptidase M (Sus scrofa, UniProt P15145); experiment: Selectivity against various proteases: aminopeptidase M (APM); type: biochemical, porcine
T4 construct: Purified aminopeptidase M from porcine kidney; from tissue; host or cells: porcine kidney
T4 sequence (P15145 1-963): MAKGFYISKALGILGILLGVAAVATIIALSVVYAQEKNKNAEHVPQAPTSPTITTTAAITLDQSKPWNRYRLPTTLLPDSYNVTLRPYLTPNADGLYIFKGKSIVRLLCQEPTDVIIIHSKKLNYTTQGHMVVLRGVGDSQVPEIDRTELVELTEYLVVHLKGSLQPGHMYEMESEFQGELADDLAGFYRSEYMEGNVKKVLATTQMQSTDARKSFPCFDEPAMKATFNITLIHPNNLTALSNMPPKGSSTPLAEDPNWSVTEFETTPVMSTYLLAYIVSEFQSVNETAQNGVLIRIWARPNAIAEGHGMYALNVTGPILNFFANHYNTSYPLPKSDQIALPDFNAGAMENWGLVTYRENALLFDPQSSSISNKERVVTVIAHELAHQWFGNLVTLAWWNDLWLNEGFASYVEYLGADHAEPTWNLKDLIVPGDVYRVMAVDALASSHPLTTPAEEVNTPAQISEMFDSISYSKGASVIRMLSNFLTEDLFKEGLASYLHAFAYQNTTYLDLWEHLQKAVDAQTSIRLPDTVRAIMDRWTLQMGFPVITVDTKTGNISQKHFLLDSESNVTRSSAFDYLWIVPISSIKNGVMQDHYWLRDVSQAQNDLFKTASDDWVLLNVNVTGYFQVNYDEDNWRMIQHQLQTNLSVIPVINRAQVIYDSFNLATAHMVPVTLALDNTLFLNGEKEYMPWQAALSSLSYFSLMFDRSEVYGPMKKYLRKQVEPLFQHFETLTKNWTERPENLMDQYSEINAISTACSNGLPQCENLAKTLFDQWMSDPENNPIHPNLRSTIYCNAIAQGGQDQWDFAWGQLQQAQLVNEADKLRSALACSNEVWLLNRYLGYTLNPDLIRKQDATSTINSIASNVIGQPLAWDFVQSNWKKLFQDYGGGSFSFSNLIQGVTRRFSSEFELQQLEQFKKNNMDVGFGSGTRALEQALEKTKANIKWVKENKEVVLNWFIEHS

trypsin = target: T5, trypsin (Bos taurus, UniProt P00760); experiment: Selectivity against various proteases: trypsin (TRY); type: biochemical, bovine
T5 construct: Purified trypsin from bovine pancreas; from tissue; host or cells: bovine pancreas
T5 sequence (P00760 24-246): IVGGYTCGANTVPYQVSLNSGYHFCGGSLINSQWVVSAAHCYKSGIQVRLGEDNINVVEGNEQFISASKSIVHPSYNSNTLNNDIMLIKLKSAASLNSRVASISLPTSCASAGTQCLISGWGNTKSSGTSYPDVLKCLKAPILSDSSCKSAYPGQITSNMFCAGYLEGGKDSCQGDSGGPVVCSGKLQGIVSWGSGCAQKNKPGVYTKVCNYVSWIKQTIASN

[1] = target: T6, porcine pancreatic elastase (Sus scrofa, UniProt P00772); experiment: Selectivity against various proteases: porcine pancreatic elastase (PPE); type: biochemical
T6 construct: Purified elastase from porcine pancreas; from tissue; host or cells: porcine pancreas
Procedure: Porcine Pancreatic Elastase (PPE)
Enzyme: Purified elastase from porcine pancreas
Substrate: MeO-succinyl-L-alanyl-L-alanyl-L-prolyl-L-valine-pNA
50 mM Tris[Tris(hydroxymethyl) aminomethane]. HCl buffer (pH 8.9)
as §1
as §2, with “The concentration used for assays were porcine pancreatic elastase at 240 nM and human Cathepsin G at 50 nM.” left out

cathepsin G = target: T7, cathepsin G (Homo sapiens, UniProt P08311); experiment: Selectivity against various proteases: cathepsin G (CTG); type: biochemical; conditions: cathepsin G 50 nM, human white blood cells, pH 7.5, 30° C., 10 minute preincubation
T7 construct: Purified Cathepsin G from human white blood cells; from tissue; host or cells: human white blood cells
T7 sequence (P08311 21-244 limits assumed): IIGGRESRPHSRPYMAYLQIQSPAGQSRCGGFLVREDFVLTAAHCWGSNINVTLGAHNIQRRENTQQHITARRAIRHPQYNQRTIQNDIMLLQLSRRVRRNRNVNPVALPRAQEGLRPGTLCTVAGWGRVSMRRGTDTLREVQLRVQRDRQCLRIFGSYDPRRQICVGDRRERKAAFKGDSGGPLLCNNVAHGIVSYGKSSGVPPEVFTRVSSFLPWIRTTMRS
Procedure: as §2, with “Reaction mixture: […] 500 mM NaCl […] 2.0 mM Substrate Except for Cathepsin D, the enzyme activities were determined by monitoring the increase in absorbance at 410 nm caused by the hydrolysis of chromogenic substrates. The activity of Cathepsin D was determined by monitoring the absorbance of 5% trichloroacetic acid-soluble material at 280 nm. Inhibition” for “Inhibition”

[2] = cathepsin C, bovine spleen, pH 5.4, 22° C., 10 minute preincubation, read-out: CTC IC50 (converted)
[3] = cathepsin D, bovine spleen, pH 3.2, 30° C., 10 minute preincubation, read-out: CTD IC50 (converted)
[4] = porcine pancreatic elastase 240 nM, pH 8.9, 30° C., 10 minute preincubation, read-out: PPE IC50 (converted)
[5] = aminopeptidase M, porcine kidney, pH 7.5, 22° C., 10 minute preincubation, read-out: APM IC50 (converted)
[6] = trypsin, bovine pancreas, pH 8.8, 22° C., 10 minute preincubation, read-out: TRY IC50 (converted)

T6 sequence (P00772 27-266): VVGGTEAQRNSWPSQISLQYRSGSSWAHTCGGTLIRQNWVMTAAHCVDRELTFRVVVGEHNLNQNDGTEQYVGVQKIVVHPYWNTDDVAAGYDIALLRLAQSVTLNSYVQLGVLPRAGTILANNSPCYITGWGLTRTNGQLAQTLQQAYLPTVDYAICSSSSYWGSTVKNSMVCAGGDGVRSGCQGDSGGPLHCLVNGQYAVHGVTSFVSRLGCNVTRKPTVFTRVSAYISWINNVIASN
T1 sequence (Q3ZCJ8 231-394 limits assumed): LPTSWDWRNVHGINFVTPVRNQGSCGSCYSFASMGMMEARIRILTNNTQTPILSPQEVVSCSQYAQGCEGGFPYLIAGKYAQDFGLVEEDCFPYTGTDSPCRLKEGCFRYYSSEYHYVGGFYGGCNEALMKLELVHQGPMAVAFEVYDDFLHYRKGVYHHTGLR
T1 sequence (Q3ZCJ8 395-463 limits assumed): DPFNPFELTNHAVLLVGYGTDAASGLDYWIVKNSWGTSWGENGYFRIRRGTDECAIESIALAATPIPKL
T1 sequence (Q3ZCJ8 25-134 limits assumed): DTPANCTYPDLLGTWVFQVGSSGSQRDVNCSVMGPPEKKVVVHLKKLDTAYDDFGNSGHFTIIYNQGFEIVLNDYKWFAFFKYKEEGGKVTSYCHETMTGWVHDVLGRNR
T2 sequence (P80209 45-390): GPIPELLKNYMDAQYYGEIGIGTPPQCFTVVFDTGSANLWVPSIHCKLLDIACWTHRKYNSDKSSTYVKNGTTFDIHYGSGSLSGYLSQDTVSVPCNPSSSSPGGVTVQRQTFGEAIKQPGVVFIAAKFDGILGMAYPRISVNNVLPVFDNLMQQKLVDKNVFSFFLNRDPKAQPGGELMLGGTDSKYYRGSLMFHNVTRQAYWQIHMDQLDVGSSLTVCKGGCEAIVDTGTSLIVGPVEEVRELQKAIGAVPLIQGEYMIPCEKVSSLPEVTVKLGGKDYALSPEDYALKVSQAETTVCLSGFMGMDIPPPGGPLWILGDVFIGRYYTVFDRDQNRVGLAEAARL

CO[C@H]1C(=O)N2C(C(=O)OCC(Cl)(Cl)Cl)=C(C)C3(CC3(c3ccccc3)c3ccccc3)S(=O)(=O)[C@H]12 (stereo partly drawn) [Example 8, 2,2,2-Trichloroethyl-7α-methoxy-2-spiro(2',2'-diphenyl) cyclo-propyl-3-methyl-3-cephem-4-carboxylate-1,1-dioxide]
IC50 (cathepsin C): 9.98 µM
IC50 (cathepsin D): 9.98 µM
IC50 (thrombin): 9.98 µM
IC50 (aminopeptidase M): 9.98 µM

CO[C@H]1C(=O)N2C(C(=O)N3CCCC3)=C(C)C3(CC3(c3ccccc3)c3ccccc3)S(=O)(=O)[C@H]12 (stereo partly drawn) [Example 10, 7-α-Methoxy-2-spiro (2',2'-diphenyl)cyclopropyl-3-methyl-3-cephem-4-pyrrolidine carboxamide-1,1-dioxide]
IC50 (cathepsin C; [2]): 9.99 µM
IC50 (cathepsin D; [3]): 9.99 µM
IC50 (thrombin): 40 µM
IC50 (aminopeptidase M): 40 µM
IC50 (trypsin): 40 µM
IC50 [1, 4]: 0.0954 µM
IC50 (cathepsin G): 30.9 µM

CC1=C(C(=O)OC(c2ccccc2)c2ccccc2)N2C(=O)[C@H](Br)[C@H]2S(=O)(=O)C12CC2(c1ccc(Cl)cc1)c1ccc(Cl)cc1 (single isomer, unassigned) [Example 12, Benzhydryl 7α-bromo-2-spiro [2',2'-(4',4'-dichloro)diphenyl]cyclopropyl-3-methyl-3-cephem-4-carboxylate-1,1-dioxide]
IC50 (cathepsin C): 55.3 µM
IC50 (cathepsin D; [3]): 46.2 µM
IC50 (thrombin): 55.3 µM
IC50 (aminopeptidase M): 55.3 µM

CCOC(=O)C1CC12C(C)=C(C(=O)OC(c1ccccc1)c1ccccc1)N1C(=O)[C@H](Br)[C@H]1S2(=O)=O (stereo partly drawn) [Example 13 (1), Benzhydryl 7α-bromo-2-spiro(2'-ethoxycarbonyl)cyclo propyl-3-methyl-3-cephem-4-carboxylate-1,1-dioxide]
IC50 (cathepsin C): 40 µM
IC50 (thrombin): 40 µM
IC50 (aminopeptidase M): 40 µM

CC1=C(C(=O)OC(c2ccccc2)c2ccccc2)N2C(=O)[C@H](Br)[C@H]2S(=O)(=O)C12CC2(c1ccc(F)cc1)c1ccc(F)cc1 (single isomer, unassigned) [Example 13, Benzhydryl 7α-bromo-2-spiro[2',2'-(4',4'-difluoro)diphenyl] cyclopropyl-3-methyl-3-cephem-4-carboxylate-1,1-dioxide]
IC50 (cathepsin C): 40 µM
IC50 (cathepsin D; [3]): 50 µM
IC50 (thrombin): 40 µM
IC50 (aminopeptidase M): 40 µM
IC50 (trypsin): 40 µM

CO[C@H]1C(=O)N2C(C(=O)N3CCCCC3)=C(C)C3(CC3(c3ccccc3)c3ccccc3)S(=O)(=O)[C@H]12 (stereo partly drawn) [Example 11, 7α-Methoxy-2-spiro (2',2'-diphenyl)cyclopropyl-3-methyl-3-cephem-4-piperidine carboxamide-1,1-dioxide]
IC50 (cathepsin C; [2]): 10 µM
IC50 (cathepsin D; [3]): 10 µM
IC50 (thrombin): 39.9 µM
IC50 (aminopeptidase M; [5]): 10 µM
IC50 (trypsin; [6]): 10 µM
IC50 [1]: 0.0316 µM

CC1=C(C(=O)N2CCCC2)N2C(=O)[C@H](Br)[C@H]2S(=O)(=O)C12CC2(c1ccccc1)c1ccccc1 (stereo partly drawn) [Example 6, 7α Bromo-2-spiro(2',2'-diphenyl)cyclopropyl-3-methyl-3-cephem-4-pyrrolidine carboxamide-1,1-dioxide]
IC50 (cathepsin C; [2]): 9.77 µM
IC50 (cathepsin D; [3]): 9.77 µM
IC50 (thrombin): 39 µM
IC50 (aminopeptidase M; [5]): 9.77 µM
IC50 (trypsin): 39 µM

CO[C@H]1C(=O)N2C(C(=O)OC(c3ccccc3)c3ccccc3)=C(C)C3(CC3(c3ccccc3)c3ccccc3)S(=O)(=O)[C@H]12 (stereo partly drawn) [Example 9, Benzhydryl 7α-methoxy-2-spiro (2',2'-diphenyl) cyclopropyl-3-methyl-3-cephem-4-carboxylate-1,1-dioxide]
IC50 (cathepsin C): 10 µM
IC50 (cathepsin D): 10 µM
IC50 (thrombin): 10 µM
IC50 (aminopeptidase M): 10 µM
IC50 (trypsin): 10 µM
IC50 [1, 4]: 0.0578 µM

CC1=C(C(=O)OC(c2ccccc2)c2ccccc2)N2C(=O)[C@H](Cl)[C@H]2S(=O)(=O)C12CC2(c1ccccc1)c1ccccc1 (single isomer, unassigned) [Example 1, Benzhydryl 7α-chloro-2-spiro(2',2'-diphenyl) cyclopropyl-3-methyl-3-cephem-4-carboxylate-1,1-dioxide]
IC50 (cathepsin C; [2]): 60 µM
IC50 (cathepsin D; [3]): 17.2 µM
IC50 (thrombin): 40 µM
IC50 (aminopeptidase M; [5]): 60 µM
IC50 (trypsin; [6]): 60 µM
IC50 (cathepsin G): 20 µM

CC1=C(C(=O)OC(c2ccccc2)c2ccccc2)N2C(=O)[C@H](Br)[C@H]2S(=O)(=O)C12CC2(C)c1ccccc1 (stereo partly drawn) [Example 13 (2), Benzhydryl 7α-bromo-2-spiro(2'-phenyl-2'-methyl) cyclopropyl-3-methyl-3-cephem-4-carboxylate-1,1-dioxide]
IC50 (cathepsin C): 40 µM
IC50 (cathepsin D; [3]): 50 µM
IC50 (thrombin): 40 µM
IC50 (aminopeptidase M): 40 µM
TRY IC50 (trypsin; trypsin, bovine pancreas, pH 8.8, 22° C., 10 minute preincubation): 0.089 µg/mL
